Where two headings read alike, the source gives them in different places.
How the values were obtained:
Rat Paw edema = experiment: Rat Paw Edema Assay (carrageenan); type: in vivo, rat (male Sprague-Dawley); details: po, 1 hr before subplantar carrageenan (500 μg per paw), paw volume increase at 3 h
Protocol: Rat Paw Edema Assay--Protocol
Male Sprague-Dawley rats (150-200 g) are fasted overnight and are given po either vehicle (1% methocell or 5% Tween 80) or a test compound. One hr later, a line is drawn using a permanent marker at the level above the ankle in one hind paw to define the area of the paw to be monitored. The paw volume (V0) is measured using a plethysmometer (Ugo-Basile, Italy) based on the principle of water displacement. The animals are then injected subplantarly with 50 μl of 1% carrageenan solution in saline (FMC Corp, Maine) into the paw using an insulin syringe with a 25-gauge needle (i.e., 500 μg carrageenan per paw). Three h later, the paw volume (V3) is measured and the increases in paw volume (V3 -V0) are calculated. The animals are sacrificed by CO2 asphyxiation and the absence or presence of stomach lesions scored. Data is compared with the vehicle-control values and percent inhibition calculated. All treatment groups are coded to eliminate observer bias.

cyclooxygenase-2 = biological target: T1, cyclooxygenase-2 (Homo sapiens, UniProt P35354); experiment: Whole cell cyclooxygenase assay, PGE2 synthesis in human osteosarcoma 143 cells (COX-2); type: cell-based
T1 construct: human osteosarcoma 143 cells (which specifically express cyclooxygenase-2); endogenous in cells; host or cells: human osteosarcoma 143 cells
T1 sequence (P35354 18-604): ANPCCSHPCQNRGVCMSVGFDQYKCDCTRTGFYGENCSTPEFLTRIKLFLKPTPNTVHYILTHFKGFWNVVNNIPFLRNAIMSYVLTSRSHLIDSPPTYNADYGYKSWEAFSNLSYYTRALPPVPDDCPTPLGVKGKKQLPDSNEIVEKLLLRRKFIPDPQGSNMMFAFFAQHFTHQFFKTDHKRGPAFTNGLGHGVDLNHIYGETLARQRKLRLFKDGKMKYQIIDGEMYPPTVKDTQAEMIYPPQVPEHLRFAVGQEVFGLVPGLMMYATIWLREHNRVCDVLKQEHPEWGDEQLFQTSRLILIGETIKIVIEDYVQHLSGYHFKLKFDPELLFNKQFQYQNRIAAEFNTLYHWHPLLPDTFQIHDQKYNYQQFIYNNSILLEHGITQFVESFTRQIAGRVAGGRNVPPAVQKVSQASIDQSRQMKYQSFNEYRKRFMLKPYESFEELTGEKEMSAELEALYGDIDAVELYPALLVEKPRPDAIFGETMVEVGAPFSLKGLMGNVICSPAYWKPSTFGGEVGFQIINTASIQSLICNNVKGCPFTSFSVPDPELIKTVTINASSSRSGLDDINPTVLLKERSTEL
Protocol: (§1) Inhibition of Cyclooxygenase Activity
(§2) Compounds are tested as inhibitors of cyclooxygenase activity in whole cell cyclooxygenase assays. Both of these assays measure prostaglandin E2 synthesis in response to arachidonic acid, using a radioimmunoassay. Cells used for these assays are human osteosarcoma 143 cells (which specifically express cyclooxygenase-2) and human U-937 cells (which specifically express cyclooxygenase-1). In these assays, 100% activity is defined as the difference between prostaglandin E2 synthesis in the absence and presence of arachidonate.
(§3) In the assay, inhibition is determined by measuring the amount of prostaglandin E2 (PGE2) synthesized in the presence of arachidonic acid, cyclooxygenase-1 or cyclooxygenase-2 and a putative inhibitor. The IC50 values represent the concentration of putative inhibitor required to return PGE2 synthesis to 50% of that obtained as compared to the uninhibited control.

cyclooxygenase-1 = biological target: T2, cyclooxygenase-1 (Homo sapiens, UniProt P23219); experiment: Whole cell cyclooxygenase assay, PGE2 synthesis in human U-937 cells (COX-1); type: cell-based; details: inhibition of PGE2 production, arachidonic acid, radioimmunoassay
T2 construct: human U-937 cells (which specifically express cyclooxygenase-1); endogenous in cells; host or cells: human U-937 cells
T2 sequence (P23219 24-599): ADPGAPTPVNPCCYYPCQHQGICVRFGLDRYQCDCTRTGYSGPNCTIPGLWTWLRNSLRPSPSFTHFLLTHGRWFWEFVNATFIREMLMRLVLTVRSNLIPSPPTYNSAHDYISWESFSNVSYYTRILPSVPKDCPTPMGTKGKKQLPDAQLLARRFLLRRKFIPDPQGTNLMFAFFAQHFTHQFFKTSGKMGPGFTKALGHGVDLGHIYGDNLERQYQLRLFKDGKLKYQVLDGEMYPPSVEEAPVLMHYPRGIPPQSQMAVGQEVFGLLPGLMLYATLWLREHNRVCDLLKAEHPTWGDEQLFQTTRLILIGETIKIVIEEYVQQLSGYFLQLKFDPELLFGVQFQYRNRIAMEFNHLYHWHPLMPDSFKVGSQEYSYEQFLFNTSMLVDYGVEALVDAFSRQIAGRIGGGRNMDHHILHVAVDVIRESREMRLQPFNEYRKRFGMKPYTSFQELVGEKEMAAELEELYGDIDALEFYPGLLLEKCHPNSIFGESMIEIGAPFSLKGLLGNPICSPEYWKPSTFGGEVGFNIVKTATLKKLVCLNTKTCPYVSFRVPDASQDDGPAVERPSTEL
Protocol: as §1, §2, §3

[1] = inhibition of PGE2 production, human osteosarcoma 143 cells, arachidonic acid, radioimmunoassay, read-out: Osteosarcoma cells (COX-2) IC50

Question: Which ED30 (Rat Paw edema) does the source give for `CCc1csc(Sc2cc3c(cc2NS(C)(=O)=O)COC3=O)n1` [Example 1, 6-(4-Ethyl-2-thiazolythio)-5-methanesulfonamido-3H-isobenzofuran-1-one] here?
Answer: 0.16 mg/kg

Question: What about the IC50 (cyclooxygenase-2) of the same compound?
Answer: 6 nM

Question: What about the IC50 (cyclooxygenase-1) of the same compound?
Answer: > 100000 nM

Question: Which results are given for `CS(=O)(=O)Nc1cc2c(cc1Sc1ccc(Cl)cn1)C(=O)OC2` [Example 2, 6-(5-Chloro-2-pyridylthio)-5-methanesulfonamido-3H-isobenzofuran-1-one]?
Answer: ED30 (Rat Paw edema): 1.3 mg/kg; IC50 (cyclooxygenase-2; [1]): 33 nM; IC50 (cyclooxygenase-1): > 100000 nM

Question: For `CS(=O)(=O)Nc1cc2c(cc1Sc1nccs1)C(=O)OC2` [Example 3, 6-(2-Thiazolythio)-5-methanesulfonamido-3H-isobenzofuran-1-one], which IC50 (cyclooxygenase-2; [1]) is on record?
Answer: 140 nM

Question: And the IC50 (cyclooxygenase-1)?
Answer: > 100000 nM

Question: `Cc1csc(Sc2cc3c(cc2NS(C)(=O)=O)COC3=O)n1` [Example 4, 5-Methanesulfonamido-6-(4-methyl-2-thiazolythio)-3H-isobenzofuran-1-one] was tested. Which ED30 (Rat Paw edema) did it give?
Answer: 1 mg/kg

Question: And the IC50 (cyclooxygenase-2; [1])?
Answer: 36.7 nM

Question: What about the IC50 (cyclooxygenase-1) of the same compound?
Answer: > 100000 nM

Source: US5968958A, “5-Methanesulfonamido-3H-isobenzofuran-1-ones as inhibitors of cyclooxygenase-2” (Merck Frosst Canada, Inc., priority 1997, dated 1999)
